Test results: patent publication US20220251036A1, “DIFLUOROHALOALLYLAMINE SULFONE DERIVATIVE INHIBITORS OF LYSYL OXIDASES, METHODS OF PREPARATION, AND USES THEREOF” (PHARMAXIS LTD., priority 2019, published 2022)

How the values were obtained:
recombinant human DAO = target: T1, recombinant human DAO (Homo sapiens, UniProt P19801); test: DAO inhibition; format: biochemical; settings: 2 hours incubation
T1 construct: Gift: Prof; Boehm, Department of Clinical Pharmacology, Medical University, Vienna
T1 sequence (P19801 20-751): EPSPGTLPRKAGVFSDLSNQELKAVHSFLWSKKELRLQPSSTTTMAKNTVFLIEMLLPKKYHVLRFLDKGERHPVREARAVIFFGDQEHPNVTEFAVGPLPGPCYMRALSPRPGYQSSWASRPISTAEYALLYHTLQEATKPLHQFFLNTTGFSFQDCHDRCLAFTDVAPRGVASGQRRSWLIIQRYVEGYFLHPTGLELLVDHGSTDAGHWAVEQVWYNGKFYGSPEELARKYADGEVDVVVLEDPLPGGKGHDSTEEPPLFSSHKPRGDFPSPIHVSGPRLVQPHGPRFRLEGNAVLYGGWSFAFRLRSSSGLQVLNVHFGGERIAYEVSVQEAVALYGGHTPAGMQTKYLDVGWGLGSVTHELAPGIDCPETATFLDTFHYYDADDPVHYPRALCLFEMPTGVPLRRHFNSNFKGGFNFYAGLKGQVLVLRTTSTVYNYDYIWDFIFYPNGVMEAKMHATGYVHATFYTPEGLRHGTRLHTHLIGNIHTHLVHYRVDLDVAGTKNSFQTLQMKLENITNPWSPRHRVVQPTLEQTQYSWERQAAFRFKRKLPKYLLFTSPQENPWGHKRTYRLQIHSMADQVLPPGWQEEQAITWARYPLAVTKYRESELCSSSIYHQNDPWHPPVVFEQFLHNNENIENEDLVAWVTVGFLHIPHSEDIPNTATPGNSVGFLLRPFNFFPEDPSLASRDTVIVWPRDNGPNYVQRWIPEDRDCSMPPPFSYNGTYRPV
Protocol: The specificity of the compounds of this invention was tested by determining their ability to inhibit DAO activity in vitro, using recombinant human DAO (100 ng/mL; kindly provided by Prof. Boehm, Department of Clinical Pharmacology, Medical University, Vienna). The assay was performed in a similar way as for human SSAO/VAP-1 (Example 8) except, the incubation with the test compounds was extended to 2 hours, and the substrate […] was used at 100 μM in place of benzylamine.

LOX = test: Lysyl oxidase activity in rat skin after topical administration; format: in vivo; settings: for dorsal skin LOX activity compared to the placebos: rats, topical
Protocol: Dorsal and ventral skin from rats treated by topical application of compound 1 were semi-defrosted at ice-cold temperature and three 3 mm punches of the skin were taken using a tissue puncher. The core sample was microdissected to leave only the epidermal and dermal layers. All other layers were removed. […] The tissue punch was placed in a 1.5 mL Eppendorf tube and snap-frozen in liquid nitrogen. A mortar and pestle stored at −80° C. was then used to pulverize skin tissue. The pulverized sample was further washed in 1 mL of ice-cold washing buffer ((0.15 M NaCl, 50 mM sodium borate, pH 8.0, with PMSF: Sigma P7626, 0.25 mM, and Aprotinin: Sigma A6279, 1 μL per mL). The tissue buffer was centrifuged (20000 g for 10 minutes at 4° C.), and the supernatant was discarded. Fresh wash buffer (1 mL) was added and the Eppendorf tube was agitated for 5 minutes at 4° C. on a vortex shaker. Washing was repeated two more times. After the last wash, the supernatant was completely removed. The rat dorsal skin pellet was re-suspended in 6 M urea 50 mM sodium borate buffer, according to sample weight to achieve final urea concentration of 4.5 M. The extraction buffer contains protease inhibitors; aprotinin and PMSF as above. Each homogenate was well-mixed by continuous vortexing at 4° C. for a 3 hour extraction. After 3 hours, […] 50 mM sodium borate buffer was added to each sample according to sample size to achieve the final urea concentration of 2.4 M. Protease inhibitors—aprotinin and PMSF—are present. The mixture was again centrifuged at (20000 g at 4° C. for 10 minutes) and the supernatant was collected in a clean, cold eppendorf. To 50 μl of sample, pargyline (final concentration at 0.5 mM) and mofegiline (final concentration at 1 μM) were added. Enzyme mix (25 μL) was transferred to the test plate with or without […] (0.5 μl 30 mM) and incubated at 37° C. for 30 minutes. Reaction mix (25 μL) is added to each well, plate fluorescence is measured every 2.5′ with or without 100 μM BAPN for the low controls (Ex: 544 nm/Em: 590 nm/gain: 1260 at 37° C.).

[1] = Skin permeability, Franz diffusion cell system; format: in vitro ADME, human; settings: topical formulation containing 3% compound; for Concentration of Compound 1 in the receptor chamber: human skin
Text: Skin permeability is essential when considering topical application to treat skin conditions. One way to evaluate skin permeability is to use a Franz diffusion cell system with human skin as a membrane (Particle Sciences; Technical Brief 2009; Vol. 10). The donor compound, topically formulated, is applied on the top chamber and diffusion through the skin is monitored at relevant time points by sampling the solution in the receptor chamber via the sampling port. The concentration of Compound 1 was determined by quantitative HPLC analysis.

skin fibrosis = test: Mouse model of sclerosis (bleomycin-induced skin fibrosis); format: in vivo, male C57BL/6; settings: […] in a topical formulation from day 3, histology after 21 days
Protocol: Subcutaneous bleomycin (0.1 U/kg) was administered every second day (for 21 days total) to male C57BL/6 to induced skin fibrosis as a model of sclerosis. […] Histology was completed after 21 days.

scars = test: Excision injury model in pigs; format: in vivo; settings: daily for 12 weeks
Protocol: Eight full thickness excisions (5×2 cm^2) were made on 5 female juvenile pigs (each weighing 18-20 kg) for a total of 40 injury sites. The entire epidermis and dermal layers of skin were removed by a plastic surgeon in one operation under anaesthesia leaving excisions approximately 5-8 mm in depth. Wounds were dressed and anti-anxiety jackets (Thundershirt; RSPCA) provided to cover wounds. Analgesia was given—buprenorphine injection and fentanyl patch (50 μg/hr) for 10 days, post-surgery—and animals were allowed to recover. The dressings were changed at regular intervals to protect the wounds and prevent infection. Daily treatment started 14 days post-surgery and continued for 12 weeks. […] The surgeons ranked scars in each set of 4 from best to worst (0-3) and the scores for each scar were added and analysed.

SMILES	IC50 (recombinant human DAO) [µM]	dorsal skin LOX activity compared to the placebos (LOX; cream containing 1% Compound 1, 400 mg/rat)	dorsal skin LOX activity compared to the placebos (LOX; cream containing 3% Compound 1, 200 mg/rat)	LOX activity in the skin of rats (LOX; topical application of cream versus control (FIG. 3))	Concentration of Compound 1 in the receptor chamber ([1]; 0 hr) [nM]	Concentration of Compound 1 in the receptor chamber ([1]; 2 hr) [nM]	Concentration of Compound 1 in the receptor chamber ([1]; 4 hr) [nM]	Concentration of Compound 1 in the receptor chamber ([1]; 6 hr) [nM]	Concentration of Compound 1 in the receptor chamber ([1]; 20 hr) [nM]	permeability and diffusion across the membrane (in words) ([1]; time dependent)	average LOX score (skin fibrosis)	average collagen score (skin fibrosis)	composite skin score (skin fibrosis)	scar appearance (scars; pigs, 0, 0.5, 1.5 and 3% oil in water cream)	scar visible versus control scars (scars; pigs, 3% oil in water cream)
N#CCCN [BAPN, β-aminopropionitrile, reference compound]	> 30														
NC/C=C(\F)C(F)(F)S(=O)(=O)c1ccccc1 [Compound 1, (Z)-3,4,4-trifluoro-4-(phenylsulfonyl)but-2-en-1-amine]		significantly lower	significantly lower	reduction	0	17	42	166	1742	good permeability and diffusion	significant improvement	significant improvement	significant improvement	substantial, dose-dependent improvement	significantly less scar visible
CNc1ccccc1S(=O)(=O)C(F)(F)/C(F)=C/CN [Compound 4, (Z)-2-((4-amino-1,1,2-trifluorobut-2-en-yl)sulfony1)-N-methylaniline]	> 30														
